According to patent US20240247080A1, “GLP1/GIP/NPY2 RECEPTOR TRIPLE AGONISTS” (Boehringer Ingelheim International GmbH, priority 2022, published 2024):
Read-outs that look alike come from different tables or passages of the source. Starred links: 1 amine or outer side, 2 acyl side, 3 side chain; linkers in the order of their positions; H or OH if unused. Non-standard residues stand in square brackets, D forms with d. Groups on a side chain read outwards from the residue. No end group written: not given here. *: point of attachment. C20 diacid = O=C(O)CCCCCCCCCCCCCCCCCCC(=O)*; C18 diacid = O=C(O)CCCCCCCCCCCCCCCCC(=O)*; γGlu = O=C(O)[C@H](CCC(=O)[*:2])N[*:1]; εLys = N[C@@H](CCCCN[*:1])C(=O)[*:2]; AEEA = NCCOCCOCC(=O)O; Aib = CC(C)(N)C(=O)O; Ahx = NCCCCCC(=O)O

Experiments:
Type in all cases: cell-based
Details in all cases: CreLuc reporter gene assay
hGLP1R = molecular target: T1, hGLP1R (Homo sapiens, UniProt P43220); test: hGLP1R CreLuc reporter gene assay in 0.5% and 100% plasma
T1 construct: expressed in transfected cells; host or cells: HEK-293 cells carrying a CRE-luciferase reporter gene
T1 sequence (P43220 24-463): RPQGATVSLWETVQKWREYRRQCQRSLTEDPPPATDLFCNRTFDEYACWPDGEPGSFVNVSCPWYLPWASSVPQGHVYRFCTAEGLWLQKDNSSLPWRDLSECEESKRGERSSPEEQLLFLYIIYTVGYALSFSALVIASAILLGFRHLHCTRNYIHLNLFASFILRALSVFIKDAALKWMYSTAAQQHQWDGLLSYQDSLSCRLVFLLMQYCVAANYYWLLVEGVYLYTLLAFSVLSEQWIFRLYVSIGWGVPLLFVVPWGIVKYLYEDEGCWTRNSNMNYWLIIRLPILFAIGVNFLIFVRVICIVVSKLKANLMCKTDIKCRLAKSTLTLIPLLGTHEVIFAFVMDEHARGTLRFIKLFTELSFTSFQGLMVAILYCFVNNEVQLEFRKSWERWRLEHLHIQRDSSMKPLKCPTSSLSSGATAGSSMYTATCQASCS
Outline: (§1)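 Agonist EC50s came from 8-concentration curves over four decades, fitted by non-linear variable-slope regression of CRE-driven luciferase luminescence. Cells were exposed 4 h at 37 °C, in buffer with 0.5% human plasma or in 100% plasma; GIPR was expressed in CHO cells, GLP-1R and NPY2R in HEK cells.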

hGIPR = molecular target: T2, hGIPR (Homo sapiens, UniProt P48546); test: hGIPR CreLuc reporter gene assay in 0.5% and 100% plasma
T2 construct: expressed in transfected cells; host or cells: CHO cells carrying a CRE-luciferase reporter gene
T2 sequence (P48546 22-466): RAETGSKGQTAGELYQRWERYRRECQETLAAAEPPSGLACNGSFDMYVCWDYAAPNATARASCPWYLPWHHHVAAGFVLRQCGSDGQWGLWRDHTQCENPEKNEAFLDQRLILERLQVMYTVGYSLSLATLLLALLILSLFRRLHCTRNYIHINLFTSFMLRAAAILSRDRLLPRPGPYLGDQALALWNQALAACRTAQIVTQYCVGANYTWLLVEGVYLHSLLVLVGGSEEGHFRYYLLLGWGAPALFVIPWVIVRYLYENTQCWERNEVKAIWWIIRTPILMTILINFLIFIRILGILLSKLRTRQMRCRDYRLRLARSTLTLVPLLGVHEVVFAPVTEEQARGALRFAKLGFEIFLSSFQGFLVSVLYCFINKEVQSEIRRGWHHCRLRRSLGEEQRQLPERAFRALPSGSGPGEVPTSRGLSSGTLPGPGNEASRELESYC
Outline: as §1

hNPY2R = molecular target: T3, hNPY2R (Homo sapiens, UniProt P49146); test: hNPY2R CreLuc reporter gene assay in 0.5% and 100% plasma
T3 construct: expressed in transfected cells; host or cells: HEK-293 cells carrying a CRE-luciferase reporter gene
T3 sequence (P49146 1-381): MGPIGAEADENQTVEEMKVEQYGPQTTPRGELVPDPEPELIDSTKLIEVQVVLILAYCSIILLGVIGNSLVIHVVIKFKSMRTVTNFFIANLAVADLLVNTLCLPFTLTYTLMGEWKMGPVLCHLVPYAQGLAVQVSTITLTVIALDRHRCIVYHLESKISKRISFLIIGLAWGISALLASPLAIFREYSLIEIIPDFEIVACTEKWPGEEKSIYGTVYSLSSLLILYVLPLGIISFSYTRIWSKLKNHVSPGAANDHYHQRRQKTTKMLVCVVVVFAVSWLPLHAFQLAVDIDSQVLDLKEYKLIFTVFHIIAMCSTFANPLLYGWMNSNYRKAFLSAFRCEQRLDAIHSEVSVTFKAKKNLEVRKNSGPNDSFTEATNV
Outline: as §1

[1] = 0.5% human plasma, read-out: hGLP1R 0.5% hP
[2] = 100% human plasma, read-out: hGLP1R 100% hP
[3] = 0.5% human plasma, read-out: hGIPR 0.5% hP
[4] = 100% human plasma, read-out: hGIPR 100% hP
[5] = 0.5% human plasma, read-out: hNPY2R 0.5% hP
[6] = 100% human plasma, read-out: hNPY2R 100% hP

Compound | EC50 (hGLP1R; [1]) [nM] | EC50 (hGLP1R; [2]) [nM] | EC50 (hGIPR; [3]) [nM] | EC50 (hGIPR; [4]) [nM] | EC50 (hNPY2R; [5]) [nM] | EC50 (hNPY2R; [6]) [nM]
H-Y[Aib]EGTFTSDYSI[Aib]LEKQAQ[Aib]AFVEWLIK([AEEA-AEEA-γGlu-γGlu-γGlu-γGlu-C20 diacid])GGPSEPASLRHYYNWLTRQRY-NH2 [Compound 226, Y-Aib-E-G-T-F-T-S-D-Y-S-I-Aib-L-E-K-Q-A-Q-Aib-A-F-V-E-W-L-I-K(1,3)-GGPSEPASLRHYYNWLTRQRY-NH2.C20DA-gGlu-gGlu-gGlu-gGlu-OEG-OEG(1,2)] | 0.24 |  | 0.43 |  |  | 46.3
Y[Aib]EGTFTSDYSI[Aib]LEKQAQ[Aib]AFVEWLIK([AEEA-AEEA-γGlu-γGlu-γGlu-C18 diacid])GGPSEGASLRHYYNWLTRQRY-NH2 [Compound 299, Y-Aib-E-G-T-F-T-S-D-Y-S-I-Aib-L-E-K-Q-A-Q-Aib-A-F-V-E-W-L-I-K(1,3)-GGPSEGASLRHYYNWLTRQRY-NH2.C18DA-gGlu-gGlu-gGlu-OEG-OEG(1,2)] | 0.08 |  | 0.4 | 0.71 | 11 | 31.6
H-Y[Aib]EGTFTSDYSI[Aib]LEKQAQ[Aib]AFVEWLIK([εLys-γGlu-γGlu-γGlu-γGlu-γGlu-γGlu-C20 diacid])GGPSSGVS[Aib]RHYYNWLTRQRY-NH2 [Compound 38, Y-Aib-E-G-T-F-T-S-D-Y-S-I-Aib-L-E-K-Q-A-Q-Aib-A-F-V-E-W-L-I-K(1,3)-G-G-P-S-S-G-V-S-Aib-R-H-Y-Y-N-W-L-T-R-Q-R-Y-NH2.C20DA-gGlu-gGlu-gGlu-gGlu-gGlu-gGlu-eLys(1,2)] | 0.06 |  |  | 0.7 |  | 17.8
H-Y[Aib]EGTFTSDYSI[Aib]LEKQAQ[Aib]AFVEWLIK([εLys-γGlu-γGlu-γGlu-γGlu-γGlu-γGlu-C20 diacid])GGPSEPQSIRHYYNWLTRQRY-NH2 [Compound 48, Y-Aib-E-G-T-F-T-S-D-Y-S-I-Aib-L-E-K-Q-A-Q-Aib-A-F-V-E-W-L-I-K(1,3)-GGPSEPQSIRHYYNWLTRQRY-NH2.C20DA-gGlu-gGlu-gGlu-gGlu-gGlu-gGlu-eLys(1,2)] | 0.07 |  | 0.07 | 0.68 |  | 35.2
H-Y[Aib]EGTFTSDYSI[Aib]LEKQAQ[Aib]AFVEWLIK([Ahx-γGlu-γGlu-γGlu-γGlu-γGlu-γGlu-C18 diacid])GGPSEGASLRHYYNWLTRQRY-NH2 [Compound 303, Y-Aib-E-G-T-F-T-S-D-Y-S-I-Aib-L-E-K-Q-A-Q-Aib-A-F-V-E-W-L-I-K(1,3)-GGPSEGASLRHYYNWLTRQRY-NH2.C18DA-gGlu-gGlu-gGlu-gGlu-gGlu-gGlu-AHX(1,2)] | 0.2 |  | 0.36 |  |  | 122
H-Y[Aib]EGTFTSDYSI[Aib]LEKQAQ[Aib]AFVEWLIK([εLys-γGlu-γGlu-γGlu-γGlu-γGlu-γGlu-C20 diacid])GGPSSGIELRHFLNHLTRQRY-NH2 [Compound 2, Y-Aib-E-G-T-F-T-S-D-Y-S-I-Aib-L-E-K-Q-A-Q-Aib-A-F-V-E-W-L-I-K(1,3)-GGPSSGIELRHFLNHLTRQRY-NH2.C20DA-gGlu-gGlu-gGlu-gGlu-gGlu-gGlu-eLys(1,2)] | 0.1 | 1.39 | 0.35 | 1.56 | > 99.9 | 563

The remaining lines, values ahead:

EC50 (hGLP1R; [1]) [nM] | EC50 (hGLP1R; [2]) [nM] | EC50 (hGIPR; [3]) [nM] | EC50 (hGIPR; [4]) [nM] | EC50 (hNPY2R; [5]) [nM] | EC50 (hNPY2R; [6]) [nM] | Compound
0.11 | 1.66 | 0.14 | 0.87 | > 99.9 | > 999 | CC[C@H](C)[C@H](NC(=O)[C@H](CC(C)C)NC(=O)[C@H](Cc1c[nH]c2ccccc12)NC(=O)[C@H](CCC(=O)O)NC(=O)[C@@H](NC(=O)[C@H](Cc1ccccc1)NC(=O)[C@H](C)NC(=O)C(C)(C)NC(=O)[C@H](CCC(N)=O)NC(=O)[C@H](C)NC(=O)[C@H](CCC(N)=O)NC(=O)[C@H](CCCCN)NC(=O)[C@H](CCC(=O)O)NC(=O)[C@H](CC(C)C)NC(=O)C(C)(C)NC(=O)[C@@H](NC(=O)[C@H](CO)NC(=O)[C@H](Cc1ccc(O)cc1)NC(=O)[C@H](CC(=O)O)NC(=O)[C@H](CO)NC(=O)[C@@H](NC(=O)[C@H](Cc1ccccc1)NC(=O)[C@@H](NC(=O)CNC(=O)[C@H](CCC(=O)O)NC(=O)C(C)(C)NC(=O)[C@@H](N)Cc1ccc(O)cc1)[C@@H](C)O)[C@@H](C)O)[C@@H](C)CC)C(C)C)C(=O)N[C@@H](CCCCNC(=O)[C@@H](N)CCCCNC(=O)CC[C@H](NC(=O)CC[C@H](NC(=O)CC[C@H](NC(=O)CC[C@H](NC(=O)CC[C@H](NC(=O)CC[C@H](NC(=O)CCCCCCCCCCCCCCCCCCC(=O)O)C(=O)O)C(=O)O)C(=O)O)C(=O)O)C(=O)O)C(=O)O)C(=O)NCC(=O)NCC(=O)N1CCC[C@H]1C(=O)N[C@@H](CO)C(=O)N[C@@H](CO)C(=O)NCC(=O)N[C@@H](C)C(=O)N[C@@H](CO)C(=O)N[C@@H](CC(C)C)C(=O)N[C@@H](CCCNC(=N)N)C(=O)N[C@H](Cc1c[nH]cn1)C(=O)N[C@@H](Cc1ccc(O)cc1)C(=O)N[C@@H](Cc1ccc(O)cc1)C(=O)N[C@@H](CC(N)=O)C(=O)N[C@@H](Cc1c[nH]c2ccccc12)C(=O)N[C@@H](CC(C)C)C(=O)N[C@H](C(=O)N[C@H](CCCNC(=N)N)C(=O)N[C@@H](CCC(N)=O)C(=O)N[C@@H](CCCNC(=N)N)C(=O)N[C@H](Cc1ccc(O)cc1)C(N)=O)[C@@H](C)O [Compound 21, Y-Aib-E-G-T-F-T-S-D-Y-S-I-Aib-L-E-K-Q-A-Q-Aib-A-F-V-E-W-L-I-K(1,3)-G-G-P-S-S-G-A-S-L-R-DHis-Y-Y-N-W-L-T-DArg-Q-R-DTyr-NH2.C20DA-gGlu-gGlu-gGlu-gGlu-gGlu-gGlu-eLys(1,2)]
0.06 | 1.7 | 0.19 | 0.83 |  | 27.6 | H-Y[Aib]EGTFTSDYSI[Aib]LEKQAQ[Aib]AFVQWLIK([AEEA-AEEA-γGlu-γGlu-γGlu-γGlu-γGlu-C20 diacid])GGPSSGASLRHYYNWLTRQRY-NH2 [Compound 112, Y-Aib-E-G-T-F-T-S-D-Y-S-I-Aib-L-E-K-Q-A-Q-Aib-A-F-V-Q-W-L-I-K(1,3)-GGPSSGASLRHYYNWLTRQRY-NH2.C20DA-gGlu-gGlu-gGlu-gGlu-gGlu-OEG-OEG(1,2)]
0.25 |  | 0.48 | 1.61 |  | 53.1 | CC[C@H](C)[C@H](NC(=O)[C@H](CC(C)C)NC(=O)[C@H](Cc1c[nH]c2ccccc12)NC(=O)[C@H](CCC(=O)O)NC(=O)[C@@H](NC(=O)[C@H](Cc1ccccc1)NC(=O)[C@H](C)NC(=O)C(C)(C)NC(=O)[C@H](CCC(N)=O)NC(=O)[C@H](C)NC(=O)[C@H](CCC(N)=O)NC(=O)[C@H](CCCCN)NC(=O)[C@H](CCC(=O)O)NC(=O)[C@H](CC(C)C)NC(=O)C(C)(C)NC(=O)[C@@H](NC(=O)[C@H](CO)NC(=O)[C@H](Cc1ccc(O)cc1)NC(=O)[C@H](CC(=O)O)NC(=O)[C@H](CO)NC(=O)[C@@H](NC(=O)[C@H](Cc1ccccc1)NC(=O)[C@@H](NC(=O)CNC(=O)[C@H](CCC(=O)O)NC(=O)C(C)(C)NC(=O)[C@@H](N)Cc1ccc(O)cc1)[C@@H](C)O)[C@@H](C)O)[C@@H](C)CC)C(C)C)C(=O)N[C@@H](CCCCNC(=O)[C@@H](N)CCCCNC(=O)CC[C@H](NC(=O)CC[C@H](NC(=O)CC[C@H](NC(=O)CC[C@H](NC(=O)CC[C@H](NC(=O)CC[C@H](NC(=O)CCCCCCCCCCCCCCCCCCC(=O)O)C(=O)O)C(=O)O)C(=O)O)C(=O)O)C(=O)O)C(=O)O)C(=O)NCC(=O)NCC(=O)N1CCC[C@H]1C(=O)N[C@@H](CO)C(=O)N[C@@H](CO)C(=O)NCC(=O)N[C@@H](C)C(=O)N[C@@H](CO)C(=O)N[C@@H](CC(C)C)C(=O)N[C@@H](CCCNC(=N)N)C(=O)N[C@@H](Cc1c[nH]cn1)C(=O)N[C@@H](Cc1ccc(O)cc1)C(=O)N[C@@H](CC(C)C)C(=O)N[C@@H](CC(N)=O)C(=O)N[C@@H](Cc1c[nH]c2ccccc12)C(=O)N[C@@H](CC(C)C)C(=O)N[C@H](C(=O)N[C@@H](CCCNC(=N)N)C(=O)N[C@@H](CCC(N)=O)C(=O)N[C@@H](CCCNC(=N)N)C(=O)N[C@@H](Cc1ccc(O)cc1)C(N)=O)[C@@H](C)O [Compound 86, Y-Aib-E-G-T-F-T-S-D-Y-S-I-Aib-L-E-K-Q-A-Q-Aib-A-F-V-E-W-L-I-K(1,3)-GGPSSGASLRHYLNWLTRQRY-NH2.C20DA-gGlu-gGlu-gGlu-gGlu-gGlu-gGlu-eLys(1,2)]
